Data from ChEMBL document CHEMBL5528046, “Discovery of Novel PROTAC Degraders of p300/CBP as Potential Therapeutics for Hepatocellular Carcinoma” (J Med Chem, 2024).
The source made the active and inactive calls. The calls are words filed in the database; no cut-off is given here.

What was measured:
SK-HEP1 [1] = assay: Downregulation of POSTN mRNA expression in human SK-HEP1 cells at 1 uM incubated for 24 hrs by RT-qPCR analysis; type: functional, cell-based
[2] = biological target: T1, Protein cereblon/Histone acetyltransferase p300 (Homo sapiens, UniProt Q09472+Q96SW2); assay: PROTAC activity at CRBN/p300 in human SK-HEP1 cells assessed as induction of p300 protein degradation incubated for 24 hrs by immunoblotting analysis; type: cell-based
[3] = biological target: T1, Protein cereblon/Histone acetyltransferase p300; assay: PROTAC activity at CRBN/p300 in human SK-HEP1 cells assessed as induction of p300 degradation by measuring residual activity at 0.5 uM pretreated with MLN4924 at 0.1 uM followed by compound addition by immunoblotting analysis relative to control; type: cell-based
Target sequence in this assay (Q09472 2-2414 limits assumed): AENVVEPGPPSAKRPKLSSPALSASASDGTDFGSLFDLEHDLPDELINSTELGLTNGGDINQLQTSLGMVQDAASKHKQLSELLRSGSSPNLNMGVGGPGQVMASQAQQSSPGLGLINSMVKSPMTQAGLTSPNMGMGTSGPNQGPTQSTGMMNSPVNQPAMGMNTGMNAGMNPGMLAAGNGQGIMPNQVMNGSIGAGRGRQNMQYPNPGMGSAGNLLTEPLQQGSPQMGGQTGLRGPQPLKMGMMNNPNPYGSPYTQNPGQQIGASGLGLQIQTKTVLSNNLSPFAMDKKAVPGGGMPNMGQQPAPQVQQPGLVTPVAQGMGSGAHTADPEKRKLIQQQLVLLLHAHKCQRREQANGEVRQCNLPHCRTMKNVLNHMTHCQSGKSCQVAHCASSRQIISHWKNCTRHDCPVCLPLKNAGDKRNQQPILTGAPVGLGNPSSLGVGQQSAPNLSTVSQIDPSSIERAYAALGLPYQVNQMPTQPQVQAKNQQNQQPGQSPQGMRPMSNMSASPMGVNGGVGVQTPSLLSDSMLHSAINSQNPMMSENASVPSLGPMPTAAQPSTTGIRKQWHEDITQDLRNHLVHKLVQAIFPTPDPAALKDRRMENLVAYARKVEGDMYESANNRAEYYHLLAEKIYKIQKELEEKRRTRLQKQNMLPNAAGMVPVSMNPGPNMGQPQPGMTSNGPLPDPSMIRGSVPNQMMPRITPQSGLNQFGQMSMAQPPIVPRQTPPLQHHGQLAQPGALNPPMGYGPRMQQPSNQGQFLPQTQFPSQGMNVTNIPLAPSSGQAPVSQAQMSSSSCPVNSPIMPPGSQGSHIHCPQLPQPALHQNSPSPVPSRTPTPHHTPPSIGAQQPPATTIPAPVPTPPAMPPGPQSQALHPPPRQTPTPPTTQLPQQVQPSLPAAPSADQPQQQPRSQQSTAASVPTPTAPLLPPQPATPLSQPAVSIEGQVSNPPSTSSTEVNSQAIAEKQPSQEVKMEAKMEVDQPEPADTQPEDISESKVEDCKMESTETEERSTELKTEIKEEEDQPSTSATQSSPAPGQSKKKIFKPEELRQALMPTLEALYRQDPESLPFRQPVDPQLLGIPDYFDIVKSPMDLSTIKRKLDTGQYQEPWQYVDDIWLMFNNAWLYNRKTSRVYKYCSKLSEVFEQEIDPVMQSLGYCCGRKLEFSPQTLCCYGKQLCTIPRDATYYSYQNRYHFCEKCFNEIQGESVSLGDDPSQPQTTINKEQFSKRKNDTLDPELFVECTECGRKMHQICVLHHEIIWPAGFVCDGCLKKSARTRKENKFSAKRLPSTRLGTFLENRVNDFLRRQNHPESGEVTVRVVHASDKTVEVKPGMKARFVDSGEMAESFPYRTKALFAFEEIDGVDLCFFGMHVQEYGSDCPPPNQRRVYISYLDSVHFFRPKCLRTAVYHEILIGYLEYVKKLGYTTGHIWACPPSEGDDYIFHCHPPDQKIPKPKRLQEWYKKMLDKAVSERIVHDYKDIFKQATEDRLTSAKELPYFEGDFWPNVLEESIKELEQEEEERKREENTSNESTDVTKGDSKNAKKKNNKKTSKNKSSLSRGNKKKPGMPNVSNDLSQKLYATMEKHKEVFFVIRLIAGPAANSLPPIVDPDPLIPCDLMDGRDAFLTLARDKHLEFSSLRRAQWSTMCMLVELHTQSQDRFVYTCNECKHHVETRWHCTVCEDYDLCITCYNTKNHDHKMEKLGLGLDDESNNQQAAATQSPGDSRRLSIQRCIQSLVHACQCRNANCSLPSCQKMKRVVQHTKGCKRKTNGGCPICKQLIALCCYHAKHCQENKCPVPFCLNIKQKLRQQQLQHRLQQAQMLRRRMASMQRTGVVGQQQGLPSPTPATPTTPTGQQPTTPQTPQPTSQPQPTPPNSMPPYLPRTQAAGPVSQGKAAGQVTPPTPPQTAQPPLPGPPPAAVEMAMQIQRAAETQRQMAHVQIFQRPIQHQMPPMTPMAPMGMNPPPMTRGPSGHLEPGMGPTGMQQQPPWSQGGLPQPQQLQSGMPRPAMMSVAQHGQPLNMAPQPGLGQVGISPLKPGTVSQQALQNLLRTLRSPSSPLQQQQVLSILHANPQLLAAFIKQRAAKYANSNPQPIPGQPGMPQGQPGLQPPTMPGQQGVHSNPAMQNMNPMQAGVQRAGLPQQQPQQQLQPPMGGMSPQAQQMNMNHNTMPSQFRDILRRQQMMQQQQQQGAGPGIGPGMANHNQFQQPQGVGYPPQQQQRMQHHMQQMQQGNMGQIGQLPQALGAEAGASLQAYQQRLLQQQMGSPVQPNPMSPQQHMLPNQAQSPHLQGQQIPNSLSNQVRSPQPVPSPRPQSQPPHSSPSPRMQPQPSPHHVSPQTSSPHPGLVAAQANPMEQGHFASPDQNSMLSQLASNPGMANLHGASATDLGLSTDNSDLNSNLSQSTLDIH
Target sequence in this assay (Q96SW2 whole entry partner): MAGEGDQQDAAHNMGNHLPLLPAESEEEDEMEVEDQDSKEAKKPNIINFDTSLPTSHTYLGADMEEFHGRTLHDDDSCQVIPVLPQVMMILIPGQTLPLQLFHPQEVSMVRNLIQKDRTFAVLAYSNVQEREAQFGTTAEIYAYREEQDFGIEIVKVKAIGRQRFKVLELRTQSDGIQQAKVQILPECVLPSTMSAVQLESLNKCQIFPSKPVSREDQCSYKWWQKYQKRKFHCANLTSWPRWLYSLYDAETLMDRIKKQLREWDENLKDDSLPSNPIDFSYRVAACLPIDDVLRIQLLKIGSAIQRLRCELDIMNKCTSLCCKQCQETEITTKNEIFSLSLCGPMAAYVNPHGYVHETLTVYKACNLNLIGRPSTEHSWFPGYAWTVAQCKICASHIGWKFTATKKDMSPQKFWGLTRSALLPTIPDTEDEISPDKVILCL

[4] = biological target: T1, Protein cereblon/Histone acetyltransferase p300; assay: PROTAC activity at CRBN/p300 in human SK-HEP1 cells assessed as induction of p300 protein degradation at 0.01 uM incubated for 24 hrs relative to control; type: cell-based
Target sequence in this assay (Q09472 2-2414 limits assumed): as the sequence (Q09472 2-2414 limits assumed) above
Target sequence in this assay (Q96SW2 whole entry partner): as the sequence (Q96SW2 whole entry partner) above

SK-HEP1 [5] = assay: Induction of cell cycle arrest at G2/M phase in human SK-HEP1 cells assessed as CDK6 protein level at 0.5 uM incubated for 24 hrs by immunoblotting analysis (reference value: 100%); type: functional
[6] = biological target: T1, Protein cereblon/Histone acetyltransferase p300; assay: PROTAC activity at CRBN/p300 in human SK-HEP1 cells assessed as induction of p300 protein degradation by measuring residual activity at 1 uM incubated for 1 hrs by immunoblotting analysis (reference value: 100%); type: cell-based
Target sequence in this assay (Q09472 2-2414 limits assumed): as the sequence (Q09472 2-2414 limits assumed) above
Target sequence in this assay (Q96SW2 whole entry partner): as the sequence (Q96SW2 whole entry partner) above

[7] = biological target: T1, Protein cereblon/Histone acetyltransferase p300; assay: PROTAC activity at CRBN/p300 in human SK-HEP1 cells assessed as induction of p300 protein degradation by measuring residual activity at 1 uM incubated for 12 hrs by immunoblotting analysis (reference value: 100%); type: cell-based
Target sequence in this assay (Q09472 2-2414 limits assumed): as the sequence (Q09472 2-2414 limits assumed) above
Target sequence in this assay (Q96SW2 whole entry partner): as the sequence (Q96SW2 whole entry partner) above

[8] = biological target: T2, Protein cereblon/CREB-binding protein (Homo sapiens) (UniProt Q92793+Q96SW2); assay: PROTAC activity at CRBN/CBP in human SK-HEP1 cells assessed as induction of […] protein degradation by measuring residual activity at 1 uM incubated for 24 hrs by immunoblotting analysis (reference value: 100%); type: cell-based
[9] = biological target: T1, Protein cereblon/Histone acetyltransferase p300; assay: PROTAC activity at CRBN/p300 in human SK-HEP1 cells assessed as induction of p300 protein degradation at 1 uM incubated for 24 hrs relative to control; type: cell-based
Target sequence in this assay (Q09472 2-2414 limits assumed): as the sequence (Q09472 2-2414 limits assumed) above
Target sequence in this assay (Q96SW2 whole entry partner): as the sequence (Q96SW2 whole entry partner) above

[10] = biological target: T1, Protein cereblon/Histone acetyltransferase p300; assay: PROTAC activity at CRBN/p300 in human SK-HEP1 cells assessed as induction of p300 protein degradation at 0.1 uM incubated for 24 hrs relative to control; type: cell-based
Target sequence in this assay (Q09472 2-2414 limits assumed): as the sequence (Q09472 2-2414 limits assumed) above
Target sequence in this assay (Q96SW2 whole entry partner): as the sequence (Q96SW2 whole entry partner) above

SK-HEP1 [11] = assay: Induction of cell cycle arrest at G2/M phase in human SK-HEP1 cells assessed as CDK6 protein level at 1 uM incubated for 24 hrs by immunoblotting analysis (reference value: 100%); type: functional
[12] = biological target: T1, Protein cereblon/Histone acetyltransferase p300; assay: PROTAC activity at CRBN/p300 in human SK-HEP1 cells assessed as induction of p300 protein degradation by measuring residual activity at 100 nM incubated for 24 hrs by immunoblotting analysis (reference value: 100%); type: cell-based
Mus musculus = assay: In vivo PROTAC activity at CRBN/p300 in nude mouse xenografted with human SK-HEP1 cells assessed as reduction in p300 protein level in tumor at 50 mg/kg, ip measured after 24 hrs by immunoblotting analysis; type: functional, organism-based
[13] = biological target: T1, Protein cereblon/Histone acetyltransferase p300; assay: PROTAC activity at CRBN/p300 in human SK-HEP1 cells assessed as induction of p300 protein degradation by measuring residual activity at 2 uM incubated for 24 hrs by immunoblotting analysis (reference value: 100%); type: cell-based
SK-HEP1 [14] = assay: Inhibition of colony formation in human SK-HEP1 cells incubated for 14 days with compound containing media replacement for every 3 days by crystal violet staining based assay; type: functional, cell-based; conditions: dose 0.5-2 µM, time 14.0 day
SK-HEP1 [15] = assay: Inhibition of colony formation in human SK-HEP1 cells at 1 uM incubated for 14 days with compound containing media replacement for every 3 days by crystal violet staining based assay relative to control; type: functional; conditions: SK-HEP1, 336 h, time 14 day
SK-HEP1 [16] = assay: Induction of cell cycle arrest at G2/M phase in human SK-HEP1 cells assessed as SKP2 protein level at 2 uM incubated for 24 hrs by immunoblotting analysis (reference value: 100%); type: functional
[17] = biological target: T1, Protein cereblon/Histone acetyltransferase p300; assay: PROTAC activity at CRBN/p300 in human SK-HEP1 cells assessed as increase in protein ubiquitination at 2 uM pretreated with MG132 at 1 uM followed by compound treatment and further incubated for 24 hrs by immunoblotting analysis (reference value: 100%); type: cell-based
SK-HEP1 [18] = assay: Induction of apoptosis in human SK-HEP1 cells incubated for 72 hrs by Annexin V-FITC/PI staining based flow cytometry analysis; type: functional, cell-based; conditions: dose 0.5-2 µM
[19] = biological target: T2, Protein cereblon/CREB-binding protein (Homo sapiens); assay: PROTAC activity at CRBN/CBP in human SK-HEP1 cells assessed as induction of […] protein degradation by measuring residual activity at 0.5 uM incubated for 24 hrs by immunoblotting analysis (reference value: 100%); type: cell-based
[20] = biological target: T1, Protein cereblon/Histone acetyltransferase p300; assay: PROTAC activity at CRBN/p300 in human SK-HEP1 cells assessed as increase in protein ubiquitination at 2 uM incubated for 24 hrs by immunoblotting analysis (reference value: 100%); type: cell-based
SK-HEP1 [21] = assay: Downregulation of COL3A1 mRNA expression in human SK-HEP1 cells at 1 uM incubated for 24 hrs by RT-qPCR analysis; type: functional, cell-based
[22] = biological target: T2, Protein cereblon/CREB-binding protein (Homo sapiens); assay: In vivo PROTAC activity at CRBN/CBP in nude mouse xenografted with human SK-HEP1 cells assessed as reduction in CBP protein level in tumor at 50 mg/kg, ip measured after 24 hrs by immunoblotting analysis; type: functional, organism-based
SK-HEP1 [23] = assay: Induction of cell cycle arrest at G2/M phase in human SK-HEP1 cells incubated for 48 hrs by RNase/PI staining based flow cytometry analysis; type: functional; conditions: dose 0.5-2 µM
[24] = biological target: T1, Protein cereblon/Histone acetyltransferase p300; assay: PROTAC activity at CRBN/p300 in human SK-HEP1 cells assessed as induction of p300 protein degradation by measuring residual activity at 250 nM incubated for 24 hrs by immunoblotting analysis (reference value: 100%); type: cell-based
[25] = biological target: T2, Protein cereblon/CREB-binding protein (Homo sapiens); assay: PROTAC activity at CRBN/CBP in human SK-HEP1 cells assessed as induction of […] protein degradation by measuring residual activity incubated for 24 hrs by immunoblotting analysis; type: cell-based; conditions: dose 0.5-2 µM
[26] = biological target: T1, Protein cereblon/Histone acetyltransferase p300; assay: PROTAC activity at CRBN/p300 in human SK-HEP1 cells assessed as induction of p300 protein degradation by measuring residual activity at 1 uM incubated for 6 hrs by immunoblotting analysis (reference value: 100%); type: cell-based
[27] = Antiproliferative activity against human JHH7 cells assessed as inhibition of cell growth incubated for 5 days by CCK-8 assay; type: functional, cell-based; conditions: JHH7, 120 h
[28] = biological target: T1, Protein cereblon/Histone acetyltransferase p300; assay: PROTAC activity at CRBN/p300 in human SK-HEP1 cells assessed as induction of p300 degradation by measuring residual activity at 0.5 uM pretreated with MG-132 followed by compound addition by immunoblotting analysis relative to control; type: cell-based
SK-HEP1 [29] = assay: Induction of cell cycle arrest at G2/M phase in human SK-HEP1 cells assessed as SKP2 protein level at 1 uM incubated for 24 hrs by immunoblotting analysis (reference value: 100%); type: functional

Activity [2]: Dose-Dependent Effect | DC50 [2]: 93 nM | Activity [3]: 115% | Activity [4]: 9% | Activity [6]: 78% | Activity [7]: 58% | Activity [8]: 92% | Activity [9]: 47% | Activity [10]: 27% | Activity [12]: 61% | Activity [13]: 62% | Activity [17]: 114% | Activity [19]: 98% | Activity [20]: 125% | Activity [22]: Active | Activity [24]: 38% | Activity [25]: Dose-Dependent Effect | Activity [26]: 59% | Activity [28]: 93%
Compound: Cc1noc(C)c1-c1ccc2c(c1)nc([C@@H]1CCCC(=O)N1c1ccc(F)c(F)c1)n2C1CCN(C2CN(c3ccc4c(c3)C(=O)N(C3CCC(=O)NC3=O)C4=O)C2)CC1 (stereo partly specified)
Activity (SK-HEP1 [1]): Active | Activity (SK-HEP1 [5]): 104% | Activity (SK-HEP1 [11]): 102% | Activity (Mus musculus): Active | inhibition (SK-HEP1 [14]): Dose-Dependent Effect | inhibition at 1 µM (SK-HEP1 [15]): > 70% | Activity (SK-HEP1 [16]): 60% | Activity (SK-HEP1 [18]): Dose-Dependent Effect | Activity (SK-HEP1 [21]): Active | Activity (SK-HEP1 [23]): Dose-Dependent Effect | IC50 [27]: 447 nM | Activity (SK-HEP1 [29]): 88%
